For one test, the target named is Vasopressin V2 receptor (Rattus norvegicus, UniProt Q00788). Kind of test: Binding affinity against Vasopressin receptor in rat kidney medulla.
For another test, the target named is T1, Oxytocin receptor (Rattus norvegicus, UniProt P70536).
T1 sequence (P70536 whole entry): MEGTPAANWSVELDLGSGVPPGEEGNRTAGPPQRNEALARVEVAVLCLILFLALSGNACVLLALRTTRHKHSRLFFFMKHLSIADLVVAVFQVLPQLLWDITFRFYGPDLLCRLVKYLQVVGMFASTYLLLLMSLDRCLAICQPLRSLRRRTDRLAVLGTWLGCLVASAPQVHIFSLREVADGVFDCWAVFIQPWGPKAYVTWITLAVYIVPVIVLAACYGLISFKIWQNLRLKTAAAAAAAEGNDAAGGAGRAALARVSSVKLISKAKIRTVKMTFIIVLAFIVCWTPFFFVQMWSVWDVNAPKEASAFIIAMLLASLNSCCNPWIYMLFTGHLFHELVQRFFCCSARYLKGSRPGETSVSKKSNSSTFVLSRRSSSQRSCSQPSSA
Kind of test: Binding affinity against oxytocin receptor in rat uterus.

Numbered stars: 1 amine (or outer) side, 2 acyl side, 3 side chain; on linkers, the order of the positions; unused ones are H or OH. Square brackets hold non-standard residues; d marks the D form. Peptide text beside a SMILES is read from it. X6 = CN(C)C[C@H]1C=NN([*:1])[C@H](C(=O)[*:2])C1; X5 = O=C1CC[C@@H](C(=O)[*:2])N([*:1])N1; dPiz(1,6-dehydro) = O=C(O)[C@H]1CCC=NN1; X2 = CN1CCC[C@@H](C(=O)[*:2])N1[*:1]; X1 = CN1CCC[C@H](C(=O)[*:2])N1[*:1]; X7 = O=C([C@@H]1C=CC=NN1[*:1])[*:2]; X4 = O=C([C@@H]1CCCNN1[*:1])[*:2]; X3 = O=C([C@H]1CCCNN1[*:1])[*:2]; dNMeF = CN[C@H](Cc1ccccc1)C(=O)O Some results are limits rather than exact numbers.

In ChEMBL document CHEMBL1124890 (J Med Chem, 1990) one finds Ki data, which are given here for nine compounds.

Usually Ki stands for the equilibrium dissociation constant of an inhibitor or competing ligand from its target. The low end stands for tighter binding, the high end for weaker binding.

Sequence of Vasopressin V2 receptor (Q00788 whole entry): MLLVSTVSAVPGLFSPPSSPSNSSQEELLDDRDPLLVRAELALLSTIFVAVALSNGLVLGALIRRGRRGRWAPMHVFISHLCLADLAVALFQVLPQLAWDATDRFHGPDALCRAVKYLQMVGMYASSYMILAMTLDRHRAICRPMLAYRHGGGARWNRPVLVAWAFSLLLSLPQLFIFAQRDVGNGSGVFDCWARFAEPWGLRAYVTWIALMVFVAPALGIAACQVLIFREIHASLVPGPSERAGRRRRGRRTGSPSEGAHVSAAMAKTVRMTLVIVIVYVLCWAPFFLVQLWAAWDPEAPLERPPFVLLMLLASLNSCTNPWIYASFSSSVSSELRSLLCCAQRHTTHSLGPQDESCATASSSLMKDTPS

As for `CC[C@@H](C)[C@@H]1/N=C(\S)[C@@H](Cc2ccccc2)NC(=O)[C@@H]2CCCN2C(=O)[C@@H](Cc2ccccc2)N(C)C(=O)[C@@H]2CCC=NN2C(=O)[C@H]2CCC=NN2C1=O`, the inhibition constant Ki stood at 0.07 µM at Vasopressin V2 receptor and 0.0011 µM at Oxytocin receptor.
On the same counts, the results for `CC[C@H](C)[C@H]1C(=O)N2NCCC[C@@H]2C(=O)N2NCCC[C@H]2C(=O)N(C)[C@H](Cc2ccccc2)C(=O)N2CCC[C@H]2C(=O)N[C@H](Cc2ccccc2)C(=O)N1O` are 3.4 µM and 0.15 µM.
Taken in the same sequence, the figures for `CC[C@H](C)[C@@H]1NC[C@@H](Cc2ccccc2)NC(=O)[C@@H]2CCCN2C(=O)[C@@H](Cc2ccccc2)N(C)C(=O)[C@@H]2CCC=NN2C(=O)[C@H]2CCC=NN2C1=O` were 30 µM and over 30 µM.
`CC[C@H](C)[C@@H]1NC(=O)[C@@H](Cc2ccccc2)NC(=O)[C@@H]2CCCN2C(=O)[C@@H](Cc2ccccc2)N(C)C(=O)[C@@H]2CCCN(C)N2C(=O)[C@H]2CCCN(C)N2C1=O` (cyclo(I[X1][X2][dNMeF]P[dF])): the Ki is 3.1 µM at Vasopressin V2 receptor and 2.5 µM on Oxytocin receptor.
As to `CC[C@H](C)[C@@H]1NC(=O)[C@@H](Cc2ccccc2)NC(=O)[C@@H]2CCCN2C(=O)[C@@H](Cc2ccccc2)N(C)C(=O)[C@@H]2CCC(=O)NN2C(=O)[C@H]2CCCNN2C1=O` (cyclo(I[X3][X5][dNMeF]P[dF])), the Ki on Vasopressin V2 receptor was found to be 7.8 µM; on Oxytocin receptor, 0.089 µM.
On the same counts, the results for `CC[C@H](C)[C@@H]1NC(=O)[C@@H](Cc2ccccc2)NC(=O)[C@@H]2CCCN2C(=O)[C@@H](Cc2ccccc2)N(C)C(=O)[C@@H]2CCC(=O)NN2C(=O)[C@H]2CCC=NN2C1=O` (cyclo(I[dPiz(1,6-dehydro)][X5][dNMeF]P[dF])) are 6.8 µM and 0.0096 µM.
On to `CC[C@H](C)[C@@H]1NC(=O)[C@@H](Cc2ccccc2)NC(=O)[C@@H]2CCCN2C(=O)[C@@H](Cc2ccccc2)N(C)C(=O)[C@@H]2C[C@@H](CN(C)C)C=NN2C(=O)[C@H]2CCC=NN2C1=O` (cyclo(I[dPiz(1,6-dehydro)][X6][dNMeF]P[dF])), for which the Ki at Vasopressin V2 receptor was determined as 1.1 µM; on Oxytocin receptor, 0.0034 µM.
Taken in the same sequence, the figures for `CC[C@H](C)[C@@H]1NC(=O)[C@@H](Cc2ccccc2)NC(=O)[C@@H]2CCCN2C(=O)[C@@H](Cc2ccccc2)N(C)C(=O)[C@@H]2C=CC=NN2C(=O)[C@H]2CCC=NN2C1=O` (cyclo(I[dPiz(1,6-dehydro)][X7][dNMeF]P[dF])) were 0.58 µM and 0.0081 µM.
With `CC[C@H](C)[C@@H]1NC(=O)[C@@H](Cc2ccccc2)NC(=O)[C@@H]2CCCN2C(=O)[C@@H](Cc2ccccc2)N(C)C(=O)[C@@H]2CCCNN2C(=O)[C@H]2CCCNN2C1=O` (cyclo([X3][X4][dNMeF]P[dF]I)), the Ki on Vasopressin V2 receptor is 1.5 µM; on Oxytocin receptor, 0.03 µM.
